Biological target: T1, C5a anaphylatoxin chemotactic receptor 1 (Homo sapiens, UniProt P21730)
T1 sequence (P21730 whole entry): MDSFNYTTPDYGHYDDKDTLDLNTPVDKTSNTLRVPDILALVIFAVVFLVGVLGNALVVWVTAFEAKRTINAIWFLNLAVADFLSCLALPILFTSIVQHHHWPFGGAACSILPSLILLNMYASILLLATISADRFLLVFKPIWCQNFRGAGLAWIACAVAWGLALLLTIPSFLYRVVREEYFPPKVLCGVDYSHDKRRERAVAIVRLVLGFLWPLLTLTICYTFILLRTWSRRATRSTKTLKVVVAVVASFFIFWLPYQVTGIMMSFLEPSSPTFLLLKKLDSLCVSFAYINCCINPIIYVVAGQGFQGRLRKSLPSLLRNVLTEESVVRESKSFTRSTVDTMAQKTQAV
Assay: ChEBML_41457
Description: Tested for its ability to compete with [125I]C5a for binding to C5a anaphylatoxin chemotactic receptor of human neutrophil membrane preparations

SMILES	IC50 [µM]
NCCCCc1[nH]c(=O)n([C@H](CC2CCCCC2)C(=O)N2CCC3(CCc4ccccc43)CC2)c1O [5-(4-aminobutyl)-3-[1-cyclohexylmethyl-2-oxo-2-spiro[2,3-dihydro-1H-indene-1,4'-(hexahydropyridine)]-1-yl-(1R)-ethyl]-(5R)-tetrahydro-1H-2,4-imidazoledione]	4
N=C(N)NCCCc1[nH]c(=O)n([C@H](Cc2ccc(O)cc2)C(=O)N2CCC3(CCc4ccccc43)CC2)c1O [5-[3-amino(imino)methylaminopropyl]-3-[1-(4-hydroxybenzyl)-2-oxo-2-spiro[2,3-dihydro-1H-indene-1,4'-(hexahydropyridine)]-1-yl-(1R)-ethyl]-(5R)-tetrahydro-1H-2,4-imidazoledione]	4
CCC[C@H](C(=O)N1CCC2(CCc3ccccc32)CC1)n1c(O)c(CCCNC(=N)N)[nH]c1=O [5-[3-amino(imino)methylaminopropyl]-3-[1-spiro[2,3-dihydro-1H-indene-1,4'-(hexahydropyridine)]-1-ylcarbonyl-(1R)-butyl]-(5R)-tetrahydro-1H-2,4-imidazoledione]	3
N=C(N)NCCCc1[nH]c(=O)n(C(CCc2ccccc2)C(=O)N2CCC3(CCc4ccccc43)CC2)c1O [5-[3-amino(imino)methylaminopropyl]-3-[3-phenyl-1-spiro[2,3-dihydro-1H-indene-1,4'-(hexahydropyridine)]-1-ylcarbonylpropyl]-(5R)-tetrahydro-1H-2,4-imidazoledione]	3
